Patent US20180092883A1, “PHOSPHATASE INHIBITORS FOR TREATING OCULAR DISEASES” (Aerpio Therapeutics, Inc., priority 2010, published 2018)

System: Rhodopsin/VEGF transgenic mice
Assay: Retinal/subretinal neovascularization in rho/VEGF transgenic mice (Study 3; GSA lectin, image analysis)
Assay type: in vivo, mouse
Settings: s.c. b.i.d. for 7 days, 3 mg/kg/dose, vs vehicle
Description: Thirty (30) Rhodopsin/VEGF transgenic mice having constitutive expression of VEGF in their retinal neurons were divided into three equal groups. At day 14 post natal each group received subcutaneous injections as follows: Group 1 received 10 mg/kg/injection (high dose) of a compound from Table XXI; Group 2 received 3 mg/kg/injection (low dose) of a compound from Table XXI; and Group 3 received injections of vehicle. Each animal received two injections per day for 7 days.
At P21, mice were sacrificed; eyes were harvested and fixed in 10% PBS-buffered formalin for 2 hours at room temperature. […] After 3 washes with PBST, retinas were mounted and imaged by fluorescence microscopy. Areas of retinal neovascularization were assessed using image analysis software (ImagePro Plus 5). […]
Transgenic mice in which the rhodopsin promoter drives expression of VEGF in photoreceptors (rho/VEGF mice) have onset of VEGF expression at P7 and starting at P10 develop sprouts of neovascularization from the deep capillary bed of the retina that grow through the photoreceptor layer and form an extensive network of new vessels in the subretinal space. […] FITC conjugated GSA was used to stain the retinas at room temperature for 2 hours and then the retinas were flat mounted with the photoreceptor side up and examined by fluorescence microscopy. […]

COC(=O)N[C@@H](Cc1ccccc1)C(=O)N[C@@H](Cc1ccc(NS(=O)(=O)O)cc1)c1csc(-c2cccs2)n1 [D91]
neovascular tufts / new blood vessels in the retina at P21 (micrograph FIG. 3B): marked reduction of neovascular tufts
